Tests used:
Assay type in all cases: cell-based, rabbit
platelets [1] = experiment: ADP-induced platelet aggregation, xenon compared to argon, vacuum step omitted; conditions: Table 3, 4 bars total pressure of gas, 4° C., 7 days, no vacuum step
Protocol: In view of the result obtained in Table 2, we performed another set of experiments to compare the properties of xenon to argon in ADP-induced platelet aggregation assays, the results of which are depicted in Table 3.
The experiments summarized in Table 3 were performed using an atmosphere of 4 bars total pressure created by introducing xenon or argon into the containers using essentially the same techniques as for the experiments described for Tables 1 and 2, except the PRP samples were cooled to 4° C. and held at approximately in an atmosphere of 3.8 bar xenon for 7 days. In this experiment, the initial partial pressure of xenon was 4 bars, but the pressure dropped to 3.8 bars during storage, presumably due to dissolution of xenon into the platelets from the atmosphere in the container.

platelets [2] = experiment: Platelet cell counting (hemocytometer) after storage of PRP; set-up: # cells: unit not given here; conditions: 4° C.; for # cells: Table 3, 4 bars total pressure of gas, 7 days; for Cell number: Input = 100%
Protocol: Blood was obtained by puncturing a rabbit marginal ear vein and collecting blood in a sterile vacuum tube. About 10-15 ml of blood was used, although the amount taken from any particular individual can be varied by the skilled artisan according to routine considerations, such as the size of the individual and the intended use of the platelets prepared according to the method of the invention.
The blood was centrifuged at a speed of approximately 200 g for 10 minutes to separate red blood cells (RBC) and platelet rich plasma (PRP). The PRP was transferred to another tube.
(§1) Two microliters of PRP were used to count cells essentially as described in Born et al. (J. Physiol. (1963) Vol. 168, pp 178-195). An additional two microliters were used for antibody staining and flow cytometry analysis performed essentially as reported in Shattil et al. (1987) Detection, Blood Vol. 70 p 307-315.
(§2) For determining platelet aggregation, approximately 250 microliters of PRP were used for a pre-treatment aggregation test. The remaining PRP was transferred to test tubes in which the atmosphere was adjusted to include xenon under two distinct pressures (4 bars of total pressure created by introducing 99.999% xenon into the test tube in a first set of experiments, and 5.3 bars of total pressure, also created by introducing 99.999% xenon into the test tube, in a second set of experiments). For adjusting the atmosphere in the containers, the test tubes were covered with rubberized caps that were punctured for introducing xenon. The test tubes were put into an experimental chamber and the atmosphere in the test tubes was adjusted by filling the test tubes with xenon using a 0.2-micrometer aseptic filter. Pressure changes in the tubes were measured using a manometer. Negative controls (no adjustment of the composition of the atmosphere in which the platelets were held) were also performed.
(§3) The chambers were shaken at 150-200 rpm on a Biosan OS-10 orbital shaker for one hour at ambient temperature (approximately 23° C.) to dissolve xenon in the PRP. The experimental chambers were then stored at approximately 4° C. with shaking at 50-70 rpm using a Biosan OS-10 orbital shaker and removed at one and two week time points for experiments under 4 bars of xenon pressure. The experiment using the initial xenon pressure of 5.3 bars were stored at 4° C. for 1 week.
After storage, the chambers were removed from refrigeration and kept at ambient temperature (approximately 23° C.) for 30 minutes with shaking at approximately 150-200 rpm. The atmosphere was then slowly allowed to equilibrate with ambient pressure of a period of 30 minutes by allowing the atmosphere in the chamber and in the test tubes to equilibrate with the atmosphere outside the test tubes through a specially adapted valve. […]
Subsequent to allowing the atmosphere in the experimental and control tubes to equilibrate with ambient pressure and temperature, the PRP samples were analyzed using conventional hemocytometer based cell counting, induced aggregation analysis using ADP and epinephrine, whereby aggregation was determined using manual counting and aggregometer analysis according to standard techniques, and by cd62p/cd61 immunostaining and flow cytometry analysis performed on an Epic XL, Beckman-Coulter cytometry machine. […]

platelets [3] = experiment: ADP/epinephrine induced platelet aggregation after storage of PRP; conditions: for Aggregation (ADP/epinephrine): Xe 4 bars, Input = 100%; for Aggregation (ADP/epinephrine), %: Table 2, 7 days Xe, 4 bars
Text: as §2, §3
After storage, the chambers were removed from refrigeration and kept at ambient temperature (approximately 23° C.) for 30 minutes with shaking at approximately 150-200 rpm. The atmosphere was then slowly allowed to equilibrate with ambient pressure of a period of 30 minutes by allowing the atmosphere in the chamber and in the test tubes to equilibrate with the atmosphere outside the test tubes through a specially adapted valve. Once the atmosphere in the chambers and test tubes equilibrated with ambient pressure, a vacuum was applied for approximately three minutes at approximately 380 mmHg to remove residual xenon from the PRP.
(§4) Analysis of the platelet function after storage included platelet counting at a hemocytometer, platelet aggregation tests using ADP and epinephrine as aggregation inducing agents, with manual counting and analysis using an aggregometer, and CD62p/CD61 antibody staining, with subsequent flow cytometry analysis on Epic XL, Beckman-Coulter generally as described in Shattil et al. (1987) Blood Vol. 70 p […] of platelets were stained using anti-CD62p and anti-CD61 antibodies obtained from commercial vendors.
(§5) Subsequent to allowing the atmosphere in the experimental and control tubes to equilibrate with ambient pressure and temperature, the PRP samples were analyzed using conventional hemocytometer based cell counting, induced aggregation analysis using ADP and epinephrine, whereby aggregation was determined using manual counting and aggregometer analysis according to standard techniques, and by cd62p/cd61 immunostaining and flow cytometry analysis performed on an Epic XL, Beckman-Coulter cytometry machine. The cdc62p/cd61 analysis was performed using commercially available antibodies and generally according to the known method reported in Shattil et al. (1987) Detection of activated platelets in whole blood using activation-dependent monoclonal antibodies and flow cytometry, Blood Vol. 70 p 307-315.

Cd41/62p = Cd41/62p immunostaining and flow cytometry (platelet activation markers); conditions: for Cd41/62p: % of cells with activation markers, Xe 4 bars, 4° C., Input 13%
Text: We analyzed platelet activation using a standard methodology comprising immunostaining platelets for CD62 and CD41 and subsequent analysis by flow cytometry. […] Thus, it will be recognized by those skilled in the art that the invention provides stored platelet preparations that are useful for treating individuals in need of platelet transfusion therapy. It is therefore considered that practicing the method of the invention transforms a platelet concentrate that would not ordinarily tolerate refrigeration into a platelet concentrate that can withstand refrigeration such that the platelet concentrate remains useful for transfusions after being stored at refrigerated temperature for at least two weeks. It will also be recognized that the platelet concentrate has other potential uses, such as in high-throughput assays to screen a test agent for the capability to modify platelet function.
as §1, §4, §5
In Table 1, “Input” represents pre-treatment/storage measurements. Cell number and Aggregation induced by ADP/epinephrine before performing the method are used to set 100% values. […] NG=no gas. […]

SMILES | Aggregation % (platelets [1]) [%] | # cells (platelets [2]) | improvement of ADP/Epinephrine induced aggregation by evacuating residual xenon with vacuum (platelets [3]; 7 days Xe 4 bars 4° C., with vs without vacuum) [%] | Aggregation (ADP/epinephrine) (platelets [3]; PRP stored 7 days, 4° C.) [%] | Aggregation (ADP/epinephrine) (platelets [3]; PRP stored 14 days, 4° C.) [%^] | Aggregation (ADP/epinephrine), % (platelets [3]; 4° C. with three minutes vacuum application) [%] | Aggregation (ADP/epinephrine), % (platelets [3]; 4° C., no vacuum) [%] | induced aggregation higher than no gas control (platelets [3]; after 2 weeks of storage, 4 bar xenon treated sample vs NG control) | Cell number (platelets [2]; PRP stored 7 days, Xe 4 bars) [%^] | Cell number (platelets [2]; PRP stored 7 days, Xe 5.3 bars) [%] | Cell number (platelets [2]; PRP stored 14 days, Xe 4 bars) [%] | Cd41/62p (Cd41/62p; PRP stored 7 days) [%] | Cd41/62p (Cd41/62p; PRP stored 14 days) [%] | surface CD62 and CD41 over control platelet concentrates not treated with xenon (Cd41/62p; platelet concentrates treated by the method) | inhibition of spontaneous activation (Cd41/62p) relative to the NG control (Cd41/62p; xenon 4 bar atmosphere treated samples)
[Ar] [Argon, argon, reference compound] | 100 | 594 *106 | – | – | – | – | – | – | – | – | – | – | – | – | –
[Xe] [Xenon, xenon] | 87 | 674 *106 | 20 | 83 | 54.5 | 72 | 53 | about 20% | 77.5 | 12.6 | 59 | 39 | 33 | two-fold less | two-fold better inhibition

From patent publication US8652770B2, “Storage of platelets under pressure with xenon containing atmosphere” (Rich Products Corporation, priority 2008, dated 2014)
